What is called MIC is the lowest concentration found to suppress growth.

Data on 12 compounds can be found in patent US4285941A, “Cephalosporin compounds and antibacterial drugs containing the same” (Eisai Co., Ltd., priority 1979, dated 1981).

Where a name gives a salt, the structure may show the parent alone.

What all share (test): Minimal inhibitory concentration (MIC), standard agar dilution method
Holding throughout (type): cell-based

The subject of assay [1] is Serratia marcescens ES-75. The settings on record: ES75, Mueller Hinton agar, 37° C., 18 hours, Examples 1, 2, 4, 5, 6, 8 and 22 as sodium salts, others as free carboxylic acids. How it is done:
(§1) The compounds obtained in these examples were tested for their antibacterial activities in vitro. Minimal inhibitory concentration (MIC) was determined by the standard agar dilution method of the Japan Society of Chemotherapy. Compounds were dissolved in appropriate solvents (sterilized water for sodium salts and acetone-water [1:1] for free acids) and serial two-fold dilutions were made. Sodium salt of Cefazolin was chosen as the control compound. One-ml aliquots of each dilution were mixed with 9 ml of Mueller Hinton agar in petri-dishes to make agar plates containing the compound at serially diluted concentrations. After agar hardened, plates were put in an incubator at 37° C. for 1.5-2 hours with the lids slightly open to evaporate acetone off the plates. Test organisms were grown for 18 hours at 37° C. in Trypticase Soy broth and diluted in saline to approximately 10^6 colony forming units per ml. A loopful of each cell suspension was applied on the agar plate mentioned above and the plates were incubated for 18 hours at 37° C. before MIC was determined. MIC values of the compounds of Examples 1, 2, 4, 5, 6, 8 and 22 were determined as their sodium salts and those of other compounds as free carboxylic acids.

The subject of assay [2] is Pseudomonas aeruginosa EP-172. The settings on record: EP172, Mueller Hinton agar, 37° C., 18 hours, Examples 1, 2, 4, 5, 6, 8 and 22 as sodium salts, others as free carboxylic acids. How it is done:
as §1

Assay [3] relates to Staphylococcus aureus 209-P. Conditions: Mueller Hinton agar, 37° C., 18 hours, Examples 1, 2, 4, 5, 6, 8 and 22 as sodium salts, others as free carboxylic acids. The protocol: as §1
In a further assay the test system is Escherichia coli NIHJ. Conditions: Mueller Hinton agar, 37° C., 18 hours, Examples 1, 2, 4, 5, 6, 8 and 22 as sodium salts, others as free carboxylic acids. The protocol:
as §1

The subject of another assay is Proteus morganii EP-14. The settings on record: Morganella morganii, EP14; Mueller Hinton agar, 37° C., 18 hours; Examples 1, 2, 4, 5, 6, 8 and 22 as sodium salts, others as free carboxylic acids. The protocol:
as §1

Assay [4] deals with Klebsiella pneumoniae EK-6. The settings on record: EK6, Mueller Hinton agar, 37° C., 18 hours, Examples 1, 2, 4, 5, 6, 8 and 22 as sodium salts, others as free carboxylic acids. How it is done:
as §1

Turning to `CN(C)CCn1nnnc1SCC1=C(C(=O)O)N2C(=O)[C@@H](NC(=O)[C@H](NC(=O)c3coc4cc(O)c(O)cc4c3=O)c3ccc(O)cc3)[C@H]2SC1` [Example 21, 7β-[D-2-(6,7-Dihydroxychromone-3-carboxamido)-2-(4-hydroxyphenyl)acetamido]-3-{[1-(2-dimethylaminoethyl)tetrazol-5-yl]-thiomethyl}-3-cephem-4-carboxylic acid], the MIC in assay [1] is not above 0.1 µg/mL; in assay [2] it was 0.8 µg/mL; in assay [3] it was 1.56 µg/mL; with Escherichia coli NIHJ it was 0.4 µg/mL; in the assay on Proteus morganii EP-14, 12.5 µg/mL; in assay [4] it was not above 0.1 µg/mL.

Regarding `O=C(O)C1=C(CSc2nnc[nH]2)CS[C@@H]2[C@H](NC(=O)[C@H](NC(=O)c3coc4cc(O)c(O)cc4c3=O)c3ccc(O)cc3)C(=O)N12` [Example 22], the MIC in assay [1] was 0.4 µg/mL; in assay [2] it was 1.56 µg/mL; in assay [3] it was 3.13 µg/mL; with Escherichia coli NIHJ, 1.56 µg/mL; with Proteus morganii EP-14 it was 50 µg/mL; in assay [4], not above 0.1 µg/mL.

Take `O=C(O)Cn1nnnc1SCC1=C(C(=O)O)N2C(=O)[C@@H](NC(=O)[C@H](NC(=O)c3coc4cc(O)c(O)cc4c3=O)c3ccc(O)cc3)[C@H]2SC1` [Example 23]: the MIC in assay [1] is not above 0.1 µg/mL; in assay [2], 0.8 µg/mL; in assay [3] it was 3.13 µg/mL; with Escherichia coli NIHJ, 0.4 µg/mL; in the assay with Proteus morganii EP-14, 12.5 µg/mL; in assay [4], not above 0.1 µg/mL.

For `O=C(O)C1=C(CSc2ccccn2)CS[C@@H]2[C@H](NC(=O)[C@H](NC(=O)c3coc4cc(O)c(O)cc4c3=O)c3ccc(O)cc3)C(=O)N12` [Example 24, 7β-[D-2-(6,7-Dihydroxychromone-3-carboxamido)-2-(4-hydroxyphenyl)acetamido]-3-(2-pyridylthiomethyl)-3-cephem-4-carboxylic acid], the MIC is not above 0.1 µg/mL in assay [1]; 0.8 µg/mL in assay [2]; 0.8 µg/mL in assay [3]; 0.4 µg/mL with Escherichia coli NIHJ; 25 µg/mL with Proteus morganii EP-14; not above 0.1 µg/mL in assay [4].

Turning to `O=C(O)C1=C(CSc2cccc[n+]2[O-])CS[C@@H]2[C@H](NC(=O)[C@H](NC(=O)c3coc4cc(O)c(O)cc4c3=O)c3ccc(O)cc3)C(=O)N12` [Example 25, 7β-[D-2-(6,7-Dihydroxychromone-3-carboxamido)-2-(4-hydroxyphenyl)acetamido]-3-[2-(pyridyl-1-oxido)thiomethyl]-3-cephem-4-carboxylic acid], the MIC in assay [1] is 0.2 µg/mL; in assay [2] it was 0.8 µg/mL; in assay [3], 1.56 µg/mL; with Escherichia coli NIHJ, 0.8 µg/mL; in the assay on Proteus morganii EP-14 it was 25 µg/mL; in assay [4] it was not above 0.1 µg/mL.

On to `O=C(O)C1=C(CSc2ncccn2)CS[C@@H]2[C@H](NC(=O)[C@H](NC(=O)c3coc4cc(O)c(O)cc4c3=O)c3ccc(O)cc3)C(=O)N12` [Example 26, 7β-[D-2-(6,7-Dihydroxychromone-3-carboxamido)-2-(4-hydroxyphenyl)acetamido]-3-(2-pyrimidinylthiomethyl)-3-cephem-4-carboxylic acid], for which the MIC is 0.2 µg/mL in assay [1]; 1.56 µg/mL in assay [2]; 0.8 µg/mL in assay [3]; 0.8 µg/mL in the assay with Escherichia coli NIHJ; 50 µg/mL with Proteus morganii EP-14; not above 0.1 µg/mL in assay [4].

Regarding `Cc1nnc(SCC2=C(C(=O)O)N3C(=O)[C@@H](NC(=O)[C@H](NC(=O)c4coc5cc(O)c(O)cc5c4=O)c4ccc(O)cc4)[C@H]3SC2)o1` [Example 27, 7β-[D-2-(6,7-Dihydroxychromone-3-carboxamido)-2-(4-hydroxyphenyl)acetoamido]-3-[(5-methyl-1,3,4-oxadiazol-2-yl)thiomethyl]-3-cephem-4-carboxylic acid], the MIC in assay [1] was 0.2 µg/mL; in assay [2], 1.56 µg/mL; in assay [3], 0.8 µg/mL; with Escherichia coli NIHJ it was 0.4 µg/mL; in the assay on Proteus morganii EP-14 it was 50 µg/mL; in assay [4], not above 0.1 µg/mL.

For `Cn1nnnc1SCC1=C(C(=O)O)N2C(=O)[C@@H](NC(=O)[C@H](NC(=O)c3coc4c(O)c(O)c(O)cc4c3=O)c3ccc(O)cc3)[C@H]2SC1` [Example 28, 7β-[D-2-(6,7,8-Trihydroxychromone-3-carboxamido)-2-(4-hydroxyphenyl)acetamido]-3-[(1-methyltetrazol-5-yl)thiomethyl]-3-cephem-4-carboxylic acid], the minimum inhibitory concentration (MIC) in assay [1] was 0.8 µg/mL; in assay [2], 0.4 µg/mL; in assay [3], 3.13 µg/mL; in the assay with Escherichia coli NIHJ, 3.13 µg/mL; in the assay on Proteus morganii EP-14, 50 µg/mL; in assay [4] it was not above 0.1 µg/mL.

`CC(=O)Oc1cc2c(=O)c(C(=O)N[C@@H](C(=O)N[C@@H]3C(=O)N4C(C(=O)O)=C(CSc5nnnn5C)CS[C@H]34)c3ccc(O)cc3)coc2c(OC(C)=O)c1OC(C)=O` [Example 29, 7β-[D-2-(6,7,8-Triacetoxychromone-3-carboxamido)-2-(4-hydroxyphenyl)acetamido]-3-[(1-methyltetrazol-5-yl)thiomethyl]-3-cephem-4-carboxylic acid]: the MIC in assay [1] was 0.4 µg/mL; in assay [2], 0.4 µg/mL; in assay [3], 1.56 µg/mL; in the assay with Escherichia coli NIHJ, 1.56 µg/mL; in the assay on Proteus morganii EP-14 it was 12.5 µg/mL; in assay [4] it was not above 0.1 µg/mL.

Take `O=C(O)Cn1nnnc1SCC1=C(C(=O)O)N2C(=O)[C@@H](NC(=O)[C@H](NC(=O)c3coc4c(O)c(O)c(O)cc4c3=O)c3ccc(O)cc3)[C@H]2SC1` [Example 30, 7β-[D-2-(6,7,8-Trihydroxychromone-3-carboxamido)-2-(4-hydroxyphenyl)acetamido]-3-[(1-carboxymethyltetrazol-5-yl)thiomethyl]-3-cephem-4-carboxylic acid]: the minimal inhibitory concentration (MIC) in assay [1] was 0.8 µg/mL; in assay [2], 0.8 µg/mL; in assay [3] it was 12.5 µg/mL; in the assay on Escherichia coli NIHJ, 0.8 µg/mL; in the assay on Proteus morganii EP-14, 50 µg/mL; in assay [4] it was not above 0.1 µg/mL.

As to `CC(=O)Oc1cc2c(=O)c(C(=O)N[C@@H](C(=O)N[C@@H]3C(=O)N4C(C(=O)O)=C(CSc5nnnn5CC(=O)O)CS[C@H]34)c3ccc(O)cc3)coc2c(OC(C)=O)c1OC(C)=O` [Example 31, 7β-[D-2-(6,7,8-Triacetoxychromone-3-carboxamido)-2-(4-hydroxyphenyl)acetamido]-3-[(1-carboxymethyltetrazol-5-yl)thiomethyl]-3-cephem-4-carboxylicacid], the MIC was 0.8 µg/mL in assay [1]; 0.8 µg/mL in assay [2]; 12.5 µg/mL in assay [3]; 0.8 µg/mL in the assay on Escherichia coli NIHJ; 25 µg/mL with Proteus morganii EP-14; not above 0.1 µg/mL in assay [4].

Regarding `Cc1nnc(SCC2=C(C(=O)O)N3C(=O)[C@@H](NC(=O)Cn4cnnn4)[C@H]3SC2)s1` [Sodium salt of Cefazolin, reference compound], the MIC in assay [1] is more than 100 µg/mL; in assay [2], more than 100 µg/mL; in assay [3] it was 0.4 µg/mL; in the assay on Escherichia coli NIHJ, 1.56 µg/mL; with Proteus morganii EP-14, more than 100 µg/mL; in assay [4] it was 1.56 µg/mL.
